This assay deals with GLP-1R-expressing HEK293 cells + Dyngo-4A (phosphoproteome). Kind of assay: Phosphoproteomics, GLP-1R-transfected cells with internalization inhibitor Dyngo-4A, 30 min. As to conditions: 50 μM, 30 min preincubation. The assay is classed as cell-based, human. As to the method: P values were calculated by a two-sided unpaired t-test.
HEK293 cells (350,000 cells/mL) were transfected in suspension using 3 μg of linear PEI (MW 25,000) per 1 μg of plasmid DNA and seeded onto poly-D-lysine-coated 60 mm dishes at a density of 1,750,000 cells per dish. After a 24-h incubation, cells were washed twice with PBS and placed in starvation media (DMEM with penicillin/streptomycin). After a 48-h incubation, cells were washed twice with HBSS and maintained in the same buffer. […] Cell extracts were prepared as previously described[64]–[66]. In short, 200 μL of the lysis buffer preheated at 95 °C (4% sodium dodecyl sulfate in 50 mM Tris adjusted to pH 8.5) was added to the cells. The samples were then denatured at 95 °C for 10 min, placed on ice and then sonicated using a probe sonicator (3 sec on, 3 sec off pulse, 1 min, 30% amplitude) (Branson). Lysate protein concentration was determined using the Pierce bicinchoninic acid assay kit (Thermo Fisher Scientific) according to the manufacturer’s instructions. The lysates were reduced using 5 mM dithiothreitol for 1 h at room temperature and alkylated using 15 mM iodoacetamide for 1 h at room temperature in the dark. Proteins were precipitated and digested on beads using MagReSyn Amine magnetic beads (ReSyn Biosciences) according to the manufacturer’s instructions. Protein digestion was conducted overnight at 37 °C with lysyl endopeptidase (LysC, Wako) (1:150 LysC/protein, w/w) and trypsin (1:300 trypsin/protein, w/w). 20% TFA, 2 M glycolic acid in 80% ACN were added to the samples at a 1:1 ratio for phosphopeptide enrichment using MagReSyn TiO2 magnetic beads (ReSyn Biosciences) according to the manufacturer’s instructions. The enriched phosphopeptides were dried overnight in a SpeedVac, resuspended into 5% formic acid (FA), desalted using StageTip (Thermo Fisher Scientific) according to the manufacturer’s instructions and dried in a SpeedVac. The experiment was performed in biological triplicates.
All parameters and settings regarding the acquisition of the proteomics data can be found in Supplementary Data 11, 12. For data acquisition, the instrument was set to peptide mode, with a trapping pressure set as low (2mTorr). An EASY-Spray Source (Thermo Fisher Scientific) was used and the column temperature was maintained with the integrated, temperature-controlled heater at 55 °C throughout the experiment. For the data presented in Fig. 5d, the column was heated at 50 °C following the manufacturer’s instructions (IonOpticks).
Acquired raw files were converted to mzML format by MSConvert (version 3.0.21258)[67] applying peak picking of the mass spectra with the vendor-provided algorithm (Thermo Fisher Scientific). The mzML files were analyzed using the FragPipe GUI v18 for both library and DIA search. […] Trypsin with up to 2 missed cleavages was set as digestion enzyme, oxidation of methionine, acetylation of the N-terminus and phosphorylation on serine, threonine and tyrosine (maximal occurrence was set to three) were set as variable modifications. Carbamidomethylation of cysteine residues was set as a fixed modification. Peptide length was restricted to 7 to 50 amino acids, and 500 to 5000 Da. The precursor tolerance was set to ±20 ppm, fragment mass tolerance to 20 ppm and MSBooster was enabled. The resulting peptide-spectrum matches were adjusted to a 1% false discovery rate with Percolator[69] as part of the Philosopher toolkit (v4.4)[70] and converted to a spectra library. DIA files were analyzed by DIA-NN 1.8.1[71], [72] using the previously generated library and monitor-command mode. Peptide quantification was performed based on the fragment elution profiles from the MS2 level (area under the curve).
All further data processing was performed in R (version 4.2.1). Only phosphopeptides with a localization score of at least 0.75 were considered for further analysis. […]

SMILES strings stand for the structures.

In the case of `O=C(N/N=C/c1cc(O)c(O)cc1O)c1cc2ccccc2cc1O` [Dyngo-4A], the “effect on magnitude of agonist-induced phosphorylation events” value is given as “affected”.

These data come from paper PMC10562414, “GLP-1R signaling neighborhoods associate with the susceptibility to adverse drug reactions of incretin mimetics” (Nature Communications, 2023).
